From the NIST ThermoML archive (doi:10.1016/j.fluid.2009.05.007)
Numbers after ± are expanded uncertainties.

Test: activity coefficient (dimensionless); of the first substance listed, at infinite dilution; xn = mol fraction of the nth substance listed
Conditions: 101 kPa, Liquid, dilutor technique, x1 = 0

`C=CCCCCCCCC` [1-decene] + CCCCCCn1cc[n+](C)c1.F[B-](F)(F)F showed an activity coefficient (318.2 K) of 54.6 ± 2.7, an activity coefficient (328.16 K) of 48.7 ± 2.4 and an activity coefficient (338.17 K) of 46 ± 2.3.

For `C=CCCCCCCCC` [1-decene] + CCCCn1cc[n+](C)c1.F[B-](F)(F)F, the activity coefficient (323.16 K) was 224 ± 11, the activity coefficient (333.17 K) was 207 ± 10 and the activity coefficient (343.17 K) was 190 ± 9.5. For the same compound, the activity coefficient (353.16 K) was 180 ± 9.

Work on `C=CCCCCC` [1-heptene] + CCCCCCn1cc[n+](C)c1.F[B-](F)(F)F yielded an activity coefficient (318.11 K) of 19.6 ± 0.98, an activity coefficient (328.19 K) of 19.3 ± 0.97 and an activity coefficient (338.14 K) of 18.8 ± 0.94. It also gave an activity coefficient (348.11 K) of 18 ± 0.9.

Compound `C=CCCCCC` [1-heptene] + CCCCn1cc[n+](C)c1.F[B-](F)(F)F has an activity coefficient (323.16 K) of 52 ± 2.6, an activity coefficient (333.24 K) of 50.3 ± 2.5 and an activity coefficient (343.15 K) of 46.6 ± 2.3. It also gave an activity coefficient (353.23 K) of 43.2 ± 2.2.

With `CCCCCCCCCC` [decane] + CCCCCCn1cc[n+](C)c1.F[B-](F)(F)F the activity coefficient (318.21 K) was 129 ± 6.4, the activity coefficient (328.16 K) was 115 ± 5.8 and the activity coefficient (338.14 K) was 110 ± 5.5. The activity coefficient (348.16 K) was 104 ± 5.2.

In the case of `CCCCCCCCCC` [decane] + CCCCn1cc[n+](C)c1.F[B-](F)(F)F, the activity coefficient (323.12 K) is reported as 620 ± 31, the activity coefficient (343.21 K) is reported as 443 ± 22 and the activity coefficient (353.16 K) is reported as 383 ± 19.

Compound `CCCCCCC` [heptane] + CCCCCCn1cc[n+](C)c1.F[B-](F)(F)F has an activity coefficient (303.16 K) of 45 ± 2.2, an activity coefficient (318.14 K) of 42 ± 2.1 and an activity coefficient (323.27 K) of 41.1 ± 2. It also gave an activity coefficient (333.11 K) of 38.9 ± 1.9 and an activity coefficient (343.09 K) of 36.8 ± 1.8.

With `CCCCCCC` [heptane] + CCCCn1cc[n+](C)c1.F[B-](F)(F)F the activity coefficient (323.16 K) was 95.8 ± 4.8, the activity coefficient (328.16 K) was 89 ± 4.5 and the activity coefficient (333.14 K) was 83.8 ± 4.2. The activity coefficient (338.14 K) was 80.1 ± 4 and the activity coefficient (343.22 K) was 75.3 ± 3.8.

In the case of `C=CCCCC` [hex-1-ene] + CCCCCCn1cc[n+](C)c1.F[B-](F)(F)F, the activity coefficient (318.11 K) is reported as 13 ± 0.65, the activity coefficient (328.19 K) is reported as 12.1 ± 0.61 and the activity coefficient (338.17 K) is reported as 11.9 ± 0.6. The activity coefficient (348.15 K) was 11.4 ± 0.57.

Work on `C=CCCCC` [hex-1-ene] + CCCCn1cc[n+](C)c1.F[B-](F)(F)F yielded an activity coefficient (323.16 K) of 30.1 ± 1.5, an activity coefficient (333.15 K) of 27.8 ± 1.4 and an activity coefficient (343.22 K) of 25.7 ± 1.3. The activity coefficient (353.14 K) was 23.9 ± 1.2.

With `CCCCCC` [hexane] + CCCCn1cc[n+](C)c1.F[B-](F)(F)F the activity coefficient (323.15 K) was 66.7 ± 3.3, the activity coefficient (328.18 K) was 63.3 ± 3.2 and the activity coefficient (333.2 K) was 61 ± 3. It also gave an activity coefficient (343.26 K) of 54.9 ± 2.8.

`CCCCCCCCC` [nonane] + CCCCCCn1cc[n+](C)c1.F[B-](F)(F)F gave an activity coefficient (318.21 K) of 88 ± 4.4, an activity coefficient (328.16 K) of 81.2 ± 4.1 and an activity coefficient (338.14 K) of 76.7 ± 3.8. It also gave an activity coefficient (348.16 K) of 72.9 ± 3.6.

Work on `CCCCCCCCC` [nonane] + CCCCn1cc[n+](C)c1.F[B-](F)(F)F yielded an activity coefficient (323.12 K) of 334 ± 17, an activity coefficient (343.21 K) of 270 ± 14 and an activity coefficient (353.16 K) of 225 ± 11.

`C=CCCCCCC` [oct-1-ene] + CCCCCCn1cc[n+](C)c1.F[B-](F)(F)F gave an activity coefficient (318.11 K) of 29.4 ± 1.5, an activity coefficient (328.19 K) of 28.1 ± 1.4 and an activity coefficient (338.14 K) of 27.2 ± 1.4. The activity coefficient (348.11 K) was 25.8 ± 1.3.

For `C=CCCCCCC` [oct-1-ene] + CCCCn1cc[n+](C)c1.F[B-](F)(F)F, the activity coefficient (323.16 K) was 88.6 ± 4.4, the activity coefficient (333.24 K) was 84.8 ± 4.2 and the activity coefficient (343.15 K) was 78.8 ± 3.9. The activity coefficient (353.23 K) was 74.2 ± 3.7.

For `CCCCCCCC` [octane] + CCCCCCn1cc[n+](C)c1.F[B-](F)(F)F, the activity coefficient (303.16 K) was 69.6 ± 3.5, the activity coefficient (318.14 K) was 62.3 ± 3.1 and the activity coefficient (323.27 K) was 59.5 ± 3. It also gave an activity coefficient (333.11 K) of 56 ± 2.8 and an activity coefficient (343.09 K) of 52.5 ± 2.6.

Work on `CCCCCCCC` [octane] + CCCCn1cc[n+](C)c1.F[B-](F)(F)F yielded an activity coefficient (323.16 K) of 170 ± 8.5, an activity coefficient (328.16 K) of 160 ± 8 and an activity coefficient (333.14 K) of 155 ± 7.7. The activity coefficient (338.14 K) was 146 ± 7.3 and the activity coefficient (343.22 K) was 143 ± 7.1.
